IC50 data for 56 compounds are collected here from patent publication US20250304537A1 (Repare Therapeutics Inc., priority 2022, published 2025).

Assay [1] addresses recombinant human Myt1 (full length PKMYT1) (Homo sapiens (Human), UniProt Q99640). The assay is described as follows: Recombinant human Myt1 kinase assay (ADP-Glo). It is filed as biochemical. As to conditions: 10 μM ATP. In outline:
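ADP-Glo luminescence measured ATP hydrolysis by recombinant full-length PKMYT1 (18 nM) after 60 min at 30 °C with 10 μM ATP. Compounds in 0.5% DMSO were added to the enzyme 15 min before ATP, at 22 °C, in HEPES/MgCl2/MnCl2 buffer. IC50 and percent maximal inhibition were derived.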

Assay [2] has as its system PKMYT1 (CDK1 pThr14) in FUOV1 cells. The experiment in a line: PKMYT1 cell-based activity assay, CDK1 pThr14 AlphaLISA in FUOV1 cells. The settings on record: 2 h incubation, read-out: FUOV-1 CDK1 pThr14 IC50. In outline: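 IC50 was derived from AlphaLISA signal (excitation 680 nm, emission 615 nm) for phospho-Thr14 CDK1 in lysates. The detection antibodies were rabbit anti-pThr14 and mouse anti-total CDK1, each at 5 nM. FUOV1 ovarian cells were exposed to compound for 2 hours before lysis.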

Like-named read-outs stand apart in the source and are kept apart here.

Sequence of recombinant human Myt1 (full length PKMYT1) (Q99640 whole entry): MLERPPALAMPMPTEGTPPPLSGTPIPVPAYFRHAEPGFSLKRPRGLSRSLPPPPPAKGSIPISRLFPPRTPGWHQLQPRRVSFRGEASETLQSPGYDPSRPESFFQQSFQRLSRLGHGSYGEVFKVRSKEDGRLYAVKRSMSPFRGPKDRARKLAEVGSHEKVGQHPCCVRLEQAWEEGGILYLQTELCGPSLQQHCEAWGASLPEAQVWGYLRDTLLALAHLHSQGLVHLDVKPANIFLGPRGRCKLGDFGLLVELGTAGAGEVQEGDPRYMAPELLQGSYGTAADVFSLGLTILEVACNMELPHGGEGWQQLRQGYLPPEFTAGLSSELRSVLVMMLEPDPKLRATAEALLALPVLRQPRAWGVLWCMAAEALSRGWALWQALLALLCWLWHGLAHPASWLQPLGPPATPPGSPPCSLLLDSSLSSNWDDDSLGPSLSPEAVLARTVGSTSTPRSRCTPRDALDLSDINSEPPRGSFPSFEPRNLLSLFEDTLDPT

For `Cc1ccc(O)c(C)c1-c1cc(-c2cc(F)cc(F)c2)nc(C(N)=O)c1N` [Compound 16, 3-amino-6-(3,5-difluorophenyl)-4-(3-hydroxy-2,6-dimethylphenyl)picolinamide], the IC50 (commonly the concentration that gives 50% inhibition) amounted to 5 nM in assay [1] and 575 nM in assay [2] (2 h).

As for `Cc1ccc(O)c(C)c1-c1cc(Cl)nc(C(N)=O)c1N` [Compound 17], the IC50 worked out at 36 nM in assay [1] and 8670 nM in assay [2] (2 h).

With `Cc1ccc(O)cc1-c1nc(-c2ccc(Cl)cc2)nc(C(N)=O)c1N` [Compound 18], the IC50 in assay [1] is 28 nM; in assay [2] (2 h), 3530 nM.

For the compound `Cc1ccc(O)c(C)c1-c1cc(-c2ccccn2)nc(C(N)=O)c1N` [Compound 19], the figures for the IC50 in assay [1] and in assay [2] (2 h) were 4 nM and 14 nM, respectively.

In the case of `Cc1ccc(O)c(C)c1-c1cc(-c2cnccn2)nc(C(N)=O)c1N` [Compound 26], the values for the IC50 in assay [1] and in assay [2] (2 h) were 3 nM and 76 nM, respectively.

In the case of `Cc1ccc(O)cc1-c1nc(-c2cccc(N3CCOCC3)c2)nc(C(N)=O)c1N` [Compound 27], the IC50 stood at 11 nM in assay [1] and 319 nM in assay [2] (2 h).

Turning to `Cc1ccc(O)cc1-c1nc(-c2cccc(Cl)c2)nc(C(N)=O)c1N` [Compound 29], the IC50 came to 25 nM in assay [1] and 1220 nM in assay [2] (2 h).

Turning to `Cc1ccc(O)c(C)c1-c1cc(-c2ccns2)nc(C(N)=O)c1N` [Compound 38], the IC50 in assay [1] came out at 3 nM; in assay [2] (2 h), 60 nM.

As for `Cc1ccc(O)c(C)c1-c1cc(-c2ncc(F)cc2F)nc(C(N)=O)c1N` [Compound 39], the IC50 in assay [1] was determined as 7 nM; in assay [2] (2 h) it was 266 nM.

Consider `Cc1ccc(-c2cc(-c3c(C)ccc(O)c3C)c(N)c(C(N)=O)n2)nc1` [Compound 40], for which the results for the IC50 in assay [1] and in assay [2] (2 h) were 4 nM and 208 nM, respectively.

With `Cc1ccc(O)c(C)c1-c1cc(-c2cccc(N3CCOCC3)c2)nc(C(N)=O)c1N` [Compound 42], the IC50 was 7 nM in assay [1] and 169 nM in assay [2] (2 h).

In the case of `Cc1ccc(O)c(C)c1-c1cc(-c2c[nH]cn2)nc(C(N)=O)c1N` [Compound 43], the IC50 in assay [1] was found to be 6 nM; in assay [2] (2 h), 336 nM.

On to `Cc1ccc(O)c(C)c1-c1cc(-c2ccnc(N)c2)nc(C(N)=O)c1N` [Compound 45], for which the half-maximal inhibitory concentration (IC50) was 2 nM in assay [1] and 60 nM in assay [2].

As to `Cc1ccc(O)c(C)c1-c1cc(-c2nccc3ccccc23)nc(C(N)=O)c1N` [Compound 48], the figures for the IC50 in assay [1] and in assay [2] (2 h) were 55 nM and 7740 nM, respectively.

For `CC(=O)Nc1cccc(-c2cc(-c3c(C)ccc(O)c3C)c(N)c(C(N)=O)n2)c1` [Compound 49], the IC50 in assay [1] came to 6 nM; in assay [2] (2 h), 137 nM.

For `Cc1ccc(O)c(C)c1-c1cc(-c2ccco2)nc(C(N)=O)c1N` [Compound 50], the results for the IC50 in assay [1] and in assay [2] (2 h) were 6 nM and 368 nM, respectively.

For the compound `Cc1ccc(O)c(C)c1-c1cc(-c2cccc(C(N)=O)c2)nc(C(N)=O)c1N` [Compound 51], the IC50 is 8 nM in assay [1] and 357 nM in assay [2] (2 h).

With `Cc1ccc(O)c(C)c1-c1cc(-c2ccnnc2)nc(C(N)=O)c1N` [Compound 52], the results for the IC50 in assay [1] and in assay [2] (2 h) were 8 nM and 45 nM, respectively.

Regarding `Cc1ccc(O)c(C)c1-c1cc(C2CC2)nc(C(N)=O)c1N` [Compound 54], the IC50 was 18 nM in assay [1] and 2410 nM in assay [2] (2 h).

In the case of `Cc1ccc(O)c(C)c1-c1cc(-c2nc3ccccc3s2)nc(C(N)=O)c1N` [Compound 55], the results for the IC50 in assay [1] and in assay [2] were 15 nM and 146 nM, respectively.

`Cc1ccc(O)c(C)c1-c1cc(-c2nc3ccccc3o2)nc(C(N)=O)c1N` [Compound 56]: the figures for the IC50 in assay [1] and in assay [2] (2 h) were 7 nM and 373 nM, respectively.

As for `Cc1ccc(O)c(C)c1-c1cc(-c2cccc(OC3CCOCC3)n2)nc(C(N)=O)c1N` [Compound 57], the IC50 in assay [1] was 7 nM; in assay [2] (2 h) it was 46 nM.

As for `Cc1ccc(O)c(C)c1-c1cc(-c2nc3ccccc3s2)nc(C(N)=O)c1N` [Compound 58], the IC50 came to 5 nM in assay [1] and 387 nM in assay [2].

Take `COc1ccc(-c2cc(-c3c(C)ccc(O)c3C)c(N)c(C(N)=O)n2)nc1` [Compound 59]: the half-maximal inhibitory concentration (IC50) in assay [1] was 4 nM; in assay [2] (2 h) it was 59 nM.

Consider `Cc1ccc(O)c(C)c1-c1cc(-c2cccc(C(F)(F)F)n2)nc(C(N)=O)c1N` [Compound 60], for which the IC50 in assay [1] turned out to be 11 nM; in assay [2] (2 h), 1820 nM.

On to `COc1ccc(-c2cc(-c3c(C)ccc(O)c3C)c(N)c(C(N)=O)n2)nc1` [Compound 61], for which the figures for the IC50 in assay [1] and in assay [2] were 2 nM and 68 nM, respectively.

For the compound `COc1cccc(-c2cc(-c3c(C)ccc(O)c3C)c(N)c(C(N)=O)n2)n1` [Compound 62], the values for the IC50 in assay [1] and in assay [2] (2 h) were 8 nM and 117 nM, respectively.

Regarding `Cc1ccc(O)c(C)c1-c1cc(-c2ccnnc2)nc(C(N)=O)c1N` [Compound 63], the IC50 in assay [1] amounted to 5 nM; in assay [2] it was 40 nM.

Regarding `Cc1ccc(O)c(C)c1-c1cc(-c2ccnc(N)c2)cc(C(N)=O)c1N` [Compound 64], the IC50 was determined as 6 nM in assay [1] and 260 nM in assay [2] (2 h).

Turning to `Cc1ccc2[nH]ncc2c1-c1nc(-c2ccccc2)nc(C(N)=O)c1N` [Compound 65], the IC50 in assay [1] was determined as 22 nM; in assay [2] (2 h), 1070 nM.

With `COc1cccc(-c2cc(-c3c(C)ccc(O)c3C)c(N)c(C(N)=O)n2)n1` [Compound 66], the results for the 50% inhibitory concentration (IC50) in assay [1] and in assay [2] were 2 nM and 168 nM, respectively.

Consider `Cc1ccc(O)c(C)c1-c1cc(-c2cc(C(F)(F)F)ccn2)nc(C(N)=O)c1N` [Compound 67], for which the IC50 in assay [1] worked out at 2 nM; in assay [2] (2 h), 272 nM.

Regarding `NC(=O)c1nc(-c2ccccc2)nc(-c2cccc3[nH]ncc23)c1N` [Compound 68], the IC50 in assay [1] is 50 nM; in assay [2] (2 h) it was above 10000 nM.

As for `NC(=O)c1nc(-c2ccccn2)cc(-c2cccc3[nH]ncc23)c1N` [Compound 70], the IC50 in assay [1] turned out to be 29 nM; in assay [2] (2 h), 1470 nM.

For `Cc1ccc(O)c(C)c1-c1cc(-c2cncnc2)nc(C(N)=O)c1N` [Compound 71], the IC50 amounted to 9 nM in assay [1] and 298 nM in assay [2] (2 h).

For `Cc1ccc(O)c(C)c1-c1cc(-c2cccc(=O)[nH]2)nc(C(N)=O)c1N` [Compound 72], the IC50 turned out to be 10 nM in assay [1] and 77 nM in assay [2] (2 h).

Take `Cc1ccc(O)c(C)c1-c1cc(-c2ncccn2)cc(C(N)=O)c1N` [Compound 78]: the half-maximal inhibitory concentration (IC50) in assay [1] came out at 9 nM; in assay [2] (2 h), 326 nM.

For `Cc1ccc(O)c(C)c1-c1cc(-c2ccncn2)nc(C(N)=O)c1N` [Compound 79], the IC50 in assay [1] came out at 8 nM; in assay [2], 90 nM.

Regarding `Cc1ccc(O)c(C)c1-c1cc(-c2ccccn2)cc(C(N)=O)c1N` [Compound 80], the IC50 turned out to be 8 nM in assay [1] and 259 nM in assay [2] (2 h).

Regarding `Cc1ccc(O)c(C)c1-c1cc(-c2nccs2)cc(C(N)=O)c1N` [Compound 81], the IC50 was 5 nM in assay [1] and 112 nM in assay [2] (2 h).

For `Cc1ccc(O)c(C)c1-c1cc(-c2cncs2)nc(C(N)=O)c1N` [Compound 82], the IC50 in assay [1] was found to be 7 nM; in assay [2] (2 h), 107 nM.

In the case of `Cc1cccc(-c2cc(-c3c(C)ccc(O)c3C)c(N)c(C(N)=O)n2)n1` [Compound 83], the IC50 in assay [1] came to 6 nM; in assay [2] (2 h), 188 nM.

Regarding `Cc1ccc(O)c(C)c1-c1cc(-c2cnccn2)cc(C(N)=O)c1N` [Compound 84], the figures for the IC50 in assay [1] and in assay [2] (2 h) were 10 nM and 357 nM, respectively.

Take `Cc1ccc2[nH]ncc2c1-c1cc(-c2cncs2)nc(C(N)=O)c1N` [Compound 85]: the IC50 in assay [1] came to 22 nM; in assay [2] (2 h), 1450 nM.

For `Cc1ccc2[nH]ncc2c1-c1cc(-c2ccnnc2)nc(C(N)=O)c1N` [Compound 86], the figures for the IC50 in assay [1] and in assay [2] were 58 nM and 945 nM, respectively.

Take `Cc1ccc2[nH]ncc2c1-c1cc(-c2ccccn2)nc(C(N)=O)c1N` [Compound 87]: the IC50 in assay [1] was determined as 11 nM; in assay [2] (2 h), 567 nM.

For the compound `Cc1ccc(O)c(C)c1-c1nc(-c2ccnnc2)cc(C(N)=O)c1N` [Compound 88], the IC50 amounted to 7 nM in assay [1] and 401 nM in assay [2].

As to `Cc1ccc(O)c(C)c1-c1cc(-c2ccncn2)nc(C(N)=O)c1N` [Compound 89], the IC50 in assay [1] was determined as 3 nM; in assay [2], 16 nM.

For `Cc1ccc(O)c(C)c1-c1cc(-c2cncs2)nc(C(N)=O)c1N` [Compound 90], the IC50 came to 3 nM in assay [1] and 58 nM in assay [2].

On to `Cc1cccc(-c2cc(-c3c(C)ccc(O)c3C)c(N)c(C(N)=O)n2)n1` [Compound 91], for which the IC50 worked out at 3 nM in assay [1] and 113 nM in assay [2].

Regarding `Cc1ccc(O)c(C)c1-c1cc(-c2ccns2)cc(C(N)=O)c1N` [Compound 92], the IC50 in assay [1] was 5 nM; in assay [2] (2 h), 131 nM.

With `Cc1ccc(O)c(C)c1-c1cc(-c2ccnnc2)cc(C(N)=O)c1N` [Compound 93], the half-inhibitory concentration (IC50) in assay [1] stood at 25 nM; in assay [2] (2 h) it was 937 nM.

For the compound `Cc1ccc(O)c(C)c1-c1cc(-c2cccc(OC3CCOCC3)n2)nc(C(N)=O)c1N` [Compound 94], the IC50 was 2 nM in assay [1] and 31 nM in assay [2].

Turning to `Cc1ccc2[nH]ncc2c1-c1cc(-c2ccnnc2)nc(C(N)=O)c1N` [Compound 95], the results for the half-maximal inhibitory concentration (IC50) in assay [1] and in assay [2] (2 h) were 16 nM and 1700 nM, respectively.

For `Cc1ccc2[nH]ncc2c1-c1nc(-c2ccncc2)nc(C(N)=O)c1N` [Compound 100], the IC50 amounted to 27 nM in assay [1] and 1230 nM in assay [2] (2 h).

`Cc1cccc(-c2nc(C(N)=O)c(N)c(-c3c(C)ccc4[nH]ncc34)n2)c1` [Compound 101]: the figures for the IC50 in assay [1] and in assay [2] (2 h) were 26 nM and 570 nM, respectively.
